Literature values in patent US20100041745A1, “Aigialomycin D and Derivatives Thereof and Their Use in Treating Cancer or Malaria or a Microbial Infection” (priority 2006, published 2010).
≈ marks a conversion by molar mass, not a printed value.

Assays:
[1] = tested on: Vero cells
[2] = tested on: KB cells
[3] = tested on: P. falciparum

C[C@H]1C/C=C/[C@@H](O)[C@@H](O)CC/C=C/c2cc(O)cc(O)c2C(=O)O1 [aigialomycin D, Aigialomycin D]
IC50 against Vero cells (antitumour activity) [1]: 1.8 µg/mL (≈ 5.38 µM) | IC50 against KB cells (antitumour activity) [2]: 3.0 µg/mL (≈ 8.97 µM) | IC50 against P. falciparum (anti-malarial activity) [3]: 6.6 µg/mL (≈ 19.7 µM)
